Experimental data as given in US20250000069A1, “ANTHELMINTIC LABORATORY ANIMAL MODEL FOR HEARTWORM” (priority 2019, published 2025).
Where “and” joins values, the source holds several entries; their conditions need not be identical. Identical values can stand only once.

Columns and labels:
[1] = system: D. immitis (Michigan strain); assay: Efficacy of compounds in the D. immitis immunosuppressed rat model (third study, subcutaneous dosing); assay type: in vivo
[2] = system: D. immitis (Michigan susceptible strain); assay: Rat (SQ) heartworm model, compiled dose correlation data; assay type: in vivo
[3] = system: D. immitis (UGA susceptible strain); assay: Dog (oral) heartworm model, compiled dose correlation data; assay type: in vivo
D. immitis JYD-34 strain = assay: Oral moxidectin in immunosuppressed rats infected with JYD-34 strain; assay type: in vivo, rat; details: for Mean worm counts: geometric mean
[4] = system: D. immitis ZoeMI-01 (ZM1) strain; assay: Oral moxidectin in immunosuppressed rats infected with ZoeMI-01 strain; assay type: in vivo, rat; details: for Mean worm counts: geometric mean
[5] = rat, in vivo
[6] = rat, SC 1.00 mg/kg day 30 post-inoculation, necropsy day 112-114
[7] = rat, SC 5.00 mg/kg day 30 post-inoculation, necropsy day 112-114
[8] = SQ 1 μg/kg, dosed month 1 post-inoculation
[9] = rat, SC 0.001 mg/kg day 30 post-inoculation, necropsy day 112-114
[10] = rat, SC 0.003 mg/kg day 30 post-inoculation, necropsy day 112-114
[11] = oral 3 μg/kg day 28, necropsy day 120
[12] = oral 3 μg/kg days 28, 56, 84, necropsy day 120
[13] = oral 12 μg/kg day 28, necropsy day 120
[14] = oral 24 μg/kg day 28, necropsy day 120
[15] = n = 4, oral 3 μg/kg day 28, necropsy day 120
[16] = n = 4, oral 3 μg/kg days 28, 56, 84, necropsy day 120
[17] = n = 4, oral 24 μg/kg day 28, necropsy day 120

SMILES: CC(C)C[C@H]1C(=O)O[C@H](Cc2ccc(N3CCOCC3)cc2)C(=O)N(C)[C@@H](CC(C)C)C(=O)O[C@H](C)C(=O)N(C)[C@@H](CC(C)C)C(=O)O[C@H](Cc2ccc(N3CCOCC3)cc2)C(=O)N(C)[C@@H](CC(C)C)C(=O)O[C@H](C)C(=O)N1C [EMO, emodepside]
- Mean worm count (range) ([1]; arithmetic mean, rat, SC 1.00 mg/kg day 30 post-inoculation, necropsy day 112-114): 1.8
- Mean worm count (range) ([1]; arithmetic mean, rat, SC 5.00 mg/kg day 30 post-inoculation, necropsy day 112-114): 0
- prevention of heartworm ([1]; rat model, dose not stated): 100%
- # rats with infection (n = 6) [1, 6]: 3
- % Efficacy [1, 6]: 75.6%
- # rats with infection (n = 6) [1, 7]: 0
- % Efficacy [1, 7]: 100%
- # of Ag+ ([1]; rat, in vivo, sc, 1 mg/kg): 1
- # of Ag+ ([1]; rat, in vivo, sc, 5 mg/kg): 1
- % Efficacy [2, 8]: 76%
- % Efficacy ([2]; SQ 5 μg/kg, dosed month 1 post-inoculation): 100%
- % Efficacy ([3]; oral 1 μg/kg, dosed month 1 post-inoculation): 58%
- % Efficacy ([3]; oral 3 μg/kg, dosed month 1 post-inoculation): 88%
- % Efficacy ([3]; oral 5 μg/kg, dosed month 1 post-inoculation): 97%
- % Efficacy ([3]; oral 10 μg/kg, dosed month 1 post-inoculation): 97%

SMILES: CC[C@H](C)[C@H]1O[C@]2(CC[C@@H]1C)C[C@@H]1C[C@@H](C/C=C(\C)[C@@H](O[C@H]3C[C@H](OC)[C@@H](O[C@H]4C[C@H](OC)[C@@H](O)[C@H](C)O4)[C@H](C)O3)[C@@H](C)/C=C/C=C3\CO[C@@H]4[C@H](O)C(C)=C[C@@H](C(=O)O1)[C@]34O)O2 [IVM, ivermectin]
- efficacy ([1]; rat, in vivo): 96.5%
- # of Ag+ ([1]; rat, in vivo, sc, 0.001 mg/kg): 2
- # rats with infection (n = 6) ([1]; rat, in vivo, sc, 0.001 mg/kg): 5
- % Efficacy ([1]; rat, in vivo, sc, 0.001 mg/kg): 89.3%
- Mean worm count (range) ([1]; rat, in vivo, sc, 0.001 mg/kg): 0.8
- # of Ag+ ([1]; rat, in vivo, sc, 0.003 mg/kg): 2
- # rats with infection (n = 6) ([1]; rat, in vivo, sc, 0.003 mg/kg): 1
- % Efficacy ([1]; rat, in vivo, sc, 0.003 mg/kg): 96.5%
- Mean worm count (range) ([1]; rat, in vivo, sc, 0.003 mg/kg): 0.3
- % Efficacy ([2]; in vivo): 89% and 97-100% and 100%
- % Efficacy ([3]; in vivo, po): 53% and 83-97% and 98% and 100% and 64%

SMILES: CO/N=C1\C[C@]2(C[C@@H]3C[C@@H](C/C=C(\C)C[C@@H](C)/C=C/C=C4\CO[C@@H]5[C@H](O)C(C)=C[C@@H](C(=O)O3)[C@]45O)O2)O[C@H](/C(C)=C/C(C)C)[C@H]1C [MOX, moxidectin]
- Mean worm count (range) ([1]; arithmetic mean, rat, SC 0.001 mg/kg day 30 post-inoculation, necropsy day 112-114): 0.67
- Mean worm count (range) ([1]; arithmetic mean, rat, SC 0.003 mg/kg day 30 post-inoculation, necropsy day 112-114): 0
- efficacy ([1]; rat model, at their use-dose): 100%
- # rats with infection (n = 6) [1, 9]: 4
- % Efficacy [1, 9]: 91.7%
- # rats with infection (n = 6) [1, 10]: 0
- % Efficacy [1, 10]: 100%
- # of Ag+ ([1]; rat, in vivo, sc, 0.001 mg/kg): 1
- # of Ag+ ([1]; rat, in vivo, sc, 0.003 mg/kg): 0
- Mean worm counts (D. immitis JYD-34 strain; [11]): 6.0
- Mean worm counts (D. immitis JYD-34 strain; [12]): 2.4
- Mean worm counts (D. immitis JYD-34 strain; [13]): 2.8
- Mean worm counts (D. immitis JYD-34 strain; [14]): 0.5
- Number of rats infected (D. immitis JYD-34 strain; n = 4, one rat died pre-necropsy, oral 12 μg/kg day 28, necropsy day 120): *3
- Number of rats infected (D. immitis JYD-34 strain; [15]): 4
- Number of rats infected (D. immitis JYD-34 strain; [16]): 4
- Number of rats infected (D. immitis JYD-34 strain; [17]): 1
- % Efficacy (D. immitis JYD-34 strain; [11]): 0%
- % Efficacy (D. immitis JYD-34 strain; [12]): 38%
- % Efficacy (D. immitis JYD-34 strain; [13]): 28%
- % Efficacy (D. immitis JYD-34 strain; [14]): 87%
- Mean worm counts [4, 11]: 1.1
- Mean worm counts [4, 12]: 0
- Mean worm counts [4, 13]: 0
- Mean worm counts [4, 14]: 0
- Number of rats infected [4, 15]: 3
- Number of rats infected [4, 16]: 0
- Number of rats infected ([4]; n = 4, oral 12 μg/kg day 28, necropsy day 120): 0
- Number of rats infected [4, 17]: 0
- % Efficacy [4, 11]: 81%
- % Efficacy [4, 12]: 100%
- % Efficacy [4, 13]: 100%
- % Efficacy [4, 14]: 100%
- % Efficacy [2, 8]: 92%
- % Efficacy ([2]; SQ 3 μg/kg, dosed month 1 post-inoculation): 100%
- % Efficacy ([3]; oral 0.5 μg/kg, dosed month 2 post-inoculation): 100%
- % Efficacy ([3]; oral 0.625 μg/kg, dosed month 2 post-inoculation): 100%
- % Efficacy ([3]; oral 1.25 μg/kg, dosed months 1, 2 post-inoculation): 100%

SMILES: CC(=O)OCC(=O)[C@@]1(O)CC[C@H]2[C@@H]3CCC4=CC(=O)CC[C@]4(C)[C@H]3[C@@H](O)C[C@@]21C [hydrocortisone, hydrocortisone acetate]
- mortality [5]: increased incidence of mortality
